Measured values as given in patent publication US5496823A, “Pharmaceutical composition for increasing bladder capacity” (Hoechst Japan Limited, priority 1991, dated 1996).

What was measured:
[1] = tested on: urination-reflexing constriction of the bladder; experiment: urination-reflexing constriction of the bladder (cystometrogram) in anesthetized rats, intravenous administration; format: in vivo, SD male rats; settings: for Bladder capacity, First / Bladder capacity, Second / Urination constriction pressure, First / Urination constriction pressure, Second / Urination threshold pressure, First / Urination threshold pressure, Second: relative level, pre-drug value = 1, mean ± SD
From the text: (§1) Effects of test drugs on urination-reflexing constriction of the bladder in anesthetized rats were examined according to Morikawa, et al. [in Oyo Yakuri/Pharmacometrics, Vol. 37, No. 1, pages 27-37, (1989)]. In the following examples, the bladder capacity designates the time from a urination to the next urination (urination interval), urination threshold pressure designates intracystic pressure) immediately prior to initiation of urination constriction and urination constriction pressure designates maximum internal pressure on urination constriction. Figures in the below table indicate relative level from the first and second reactions after administration of a drug taking the measured value before administration of the drug as 1 for bladder capacity (min.), urination threshold pressure (mmHg) and urination constriction pressure (mmHg), respectively.
(§2) Groups of 4-6 SD male rats were used and each animal was subjected to laparotomy under anesthesia with urethan, ligature around the ureter and then exposure of the bladder, on the top of which was perforated with a small opening, through which a cannula with a three-way step cock was inserted.
(§3) One of the three-way stop cock was connected to a syringe for continuously introducing a physiological saline solution and another to a pressure transducer for the measurement of intrasystic pressure.
(§4) A physiological saline solution was introduced into the bladder at a rate of 55 μl per min., and changes in intracystic pressure were recorded until urination. From the intracystic pressure curve were determined bladder capacity, urination threshold pressure and urination constriction pressure to examine the action of the introduction of physiological saline solution.
The drug was given via a polyethylene tube inserted into the femoral vein. […]

[2] = tested on: urination-reflexing constriction of the bladder; experiment: urination-reflexing constriction of the bladder (cystometrogram) in anesthetized rats, intraduodenal administration; format: in vivo, SD male rats; settings: relative level, pre-drug value = 1, mean ± SD
From the text: as §1, §2, §3, §4
Groups of 4-5 SD male rats were fasted overnight and subjected to the same experimental procedures as in Example 1. The drug was given via a polyethylene tube inserted into the duodenum.

[3] = Japanese Patent Publication No. 33120/1977; cited from earlier work

Compound: CCCn1cnc2c1c(=O)n(CCCCC(C)=O)c(=O)n2C [propentofylline, 3,7-dihydro-3-methyl-1-(5-oxohexyl)-7-propyl-1H-purine-2,6-dione]
- Bladder capacity, First ([1]; 0.2 mg/kg i.v., n=5): 1.2 ± 0.8
- Bladder capacity, Second ([1]; 0.2 mg/kg i.v., n=5): 1.1 ± 0.4
- Urination constriction pressure, First ([1]; 0.2 mg/kg i.v., n=5): 1.0 ± 0.1
- Urination constriction pressure, Second ([1]; 0.2 mg/kg i.v., n=5): 0.9 ± 0.1
- Urination threshold pressure, First ([1]; 0.2 mg/kg i.v., n=5): 1.2 ± 0.5
- Urination threshold pressure, Second ([1]; 0.2 mg/kg i.v., n=5): 1.0 ± 0.3
- Bladder capacity, First ([1]; 1 mg/kg i.v., n=5): 2.5 ± 1.9
- Bladder capacity, Second ([1]; 1 mg/kg i.v., n=5): 0.7 ± 0.2
- Urination constriction pressure, First ([1]; 1 mg/kg i.v., n=5): 1.0 ± 0.1
- Urination constriction pressure, Second ([1]; 1 mg/kg i.v., n=5): 1.1 ± 0.2
- Urination threshold pressure, First ([1]; 1 mg/kg i.v., n=5): 1.1 ± 0.1
- Urination threshold pressure, Second ([1]; 1 mg/kg i.v., n=5): 1.1 ± 0.2
- Bladder capacity, Second ([1]; 5 mg/kg i.v., n=6): 1.0 ± 0.5
- Urination constriction pressure, First ([1]; 5 mg/kg i.v., n=6): 1.0 ± 0.1
- Urination constriction pressure, Second ([1]; 5 mg/kg i.v., n=6): 1.0 ± 0.2
- Urination threshold pressure, First ([1]; 5 mg/kg i.v., n=6): 1.5 ± 0.4
- Urination threshold pressure, Second ([1]; 5 mg/kg i.v., n=6): 1.2 ± 0.6
- Bladder capacity, First ([1]; 5 mg/kg i.v., n=6, P < 0.05): 4.1 ± 2.6
- Bladder capacity, Second ([1]; 10 mg/kg i.v., n=5): 0.9 ± 0.5
- Urination constriction pressure, First ([1]; 10 mg/kg i.v., n=5): 1.0 ± 0.2
- Urination constriction pressure, Second ([1]; 10 mg/kg i.v., n=5): 1.0 ± 0.2
- Urination threshold pressure, Second ([1]; 10 mg/kg i.v., n=5): 1.1 ± 0.3
- Urination threshold pressure, First ([1]; 10 mg/kg i.v., n=5, P < 0.01): 2.1 ± 0.7
- Bladder capacity, First ([1]; 10 mg/kg i.v., n=5, P < 0.05): 3.5 ± 1.1
- Bladder capacity, Second ([1]; 20 mg/kg i.v., n=5): 1.0 ± 0.8
- Urination constriction pressure, First ([1]; 20 mg/kg i.v., n=5): 1.0 ± 0.1
- Urination constriction pressure, Second ([1]; 20 mg/kg i.v., n=5): 1.0 ± 0.1
- Urination threshold pressure, Second ([1]; 20 mg/kg i.v., n=5): 1.5 ± 0.8
- Urination threshold pressure, First ([1]; 20 mg/kg i.v., n=5, P < 0.01): 2.5 ± 0.8
- Bladder capacity, First ([1]; 20 mg/kg i.v., n=5, P < 0.05): 4.9 ± 3.2
- constrictive force of the bladder (in words) ([1]; animal experiments, summary): almost no influence upon constrictive force of the bladder
- substantial bladder capacity / volume (in words) ([1]; animal experiments, summary): increased substantial bladder capacity
- urination intervals (in words) ([1]; animal experiments, summary): prolonged urination intervals
- urination threshold pressure (in words) ([1]; animal experiments, summary): increased urination threshold pressure
- Bladder capacity, First ([2]; 3 mg/kg intraduodenal, n=4): 1.1 ± 0.2
- Bladder capacity, Second ([2]; 3 mg/kg intraduodenal, n=4): 1.1 ± 0.3
- Urination constriction pressure, First ([2]; 3 mg/kg intraduodenal, n=4): 1.1 ± 0.1
- Urination constriction pressure, Second ([2]; 3 mg/kg intraduodenal, n=4): 1.1 ± 0.2
- Urination threshold pressure, First ([2]; 3 mg/kg intraduodenal, n=4): 1.0 ± 0.2
- Urination threshold pressure, Second ([2]; 3 mg/kg intraduodenal, n=4): 1.0 ± 0.2
- Bladder capacity, First ([2]; 10 mg/kg intraduodenal, n=4): 2.7 ± 1.8
- Bladder capacity, Second ([2]; 10 mg/kg intraduodenal, n=4): 1.0 ± 1.0
- Urination constriction pressure, First ([2]; 10 mg/kg intraduodenal, n=4): 1.0 ± 0.1
- Urination constriction pressure, Second ([2]; 10 mg/kg intraduodenal, n=4): 0.9 ± 0.1
- Urination threshold pressure, First ([2]; 10 mg/kg intraduodenal, n=4): 1.3 ± 0.3
- Urination threshold pressure, Second ([2]; 10 mg/kg intraduodenal, n=4): 1.3 ± 0.5
- Bladder capacity, First ([2]; 30 mg/kg intraduodenal, n=5): 2.7 ± 1.6
- Bladder capacity, Second ([2]; 30 mg/kg intraduodenal, n=5): 0.8 ± 0.6
- Urination constriction pressure, First ([2]; 30 mg/kg intraduodenal, n=5): 0.9 ± 0.1
- Urination constriction pressure, Second ([2]; 30 mg/kg intraduodenal, n=5): 1.0 ± 0.1
- Urination threshold pressure, First ([2]; 30 mg/kg intraduodenal, n=5): 1.6 ± 0.9
- Urination threshold pressure, Second ([2]; 30 mg/kg intraduodenal, n=5): 1.4 ± 0.9
- Bladder capacity, Second ([2]; 50 mg/kg intraduodenal, n=5): 0.6 ± 0.2
- Urination constriction pressure, First ([2]; 50 mg/kg intraduodenal, n=5): 1.0 ± 0.1
- Urination constriction pressure, Second ([2]; 50 mg/kg intraduodenal, n=5): 1.0
- Urination threshold pressure, Second ([2]; 50 mg/kg intraduodenal, n=5): 1.4 ± 0.7
- Bladder capacity, First ([2]; 50 mg/kg intraduodenal, n=5, P < 0.01): 4.3 ± 2.1
- Urination threshold pressure, First ([2]; 50 mg/kg intraduodenal, n=5, P < 0.05): 1.7 ± 0.6
- action on vertebral artery (in words) [3]: specifically active on vertebral artery
- blood flow during cerebral circulation (in words) [3]: increase blood flow highly selectively during cerebral circulation

Compound: CCOCn1cnc2c1c(=O)n(CCCCC(C)(C)O)c(=O)n2C [Compound VI, 3,7-dihydro-3-methyl-1-(5-hydroxy-5-methylhexyl)-7-ethoxymethyl-1H-purine-2,6-dione]
- Bladder capacity, First ([1]; Table 3, 20 mg/kg i.v., n=5): 1.8 ± 0.9
- Bladder capacity, Second ([1]; Table 3, 20 mg/kg i.v., n=5): 1.4 ± 1.0
- Urination constriction pressure, First ([1]; Table 3, 20 mg/kg i.v., n=5): 1.0 ± 0.1
- Urination constriction pressure, Second ([1]; Table 3, 20 mg/kg i.v., n=5): 1.0 ± 0.1
- Urination threshold pressure, First ([1]; Table 3, 20 mg/kg i.v., n=5): 1.3 ± 0.9
- Urination threshold pressure, Second ([1]; Table 3, 20 mg/kg i.v., n=5): 1.0 ± 0.4
